Entries after “also recorded” stand apart in the source; their conditions may differ.
How the values were obtained:
[1] = system: HOP-92 cells; assay: Cell cycle analysis (propidium iodide flow cytometry); assay type: cell-based, human
Source text: Research has been done on how the most powerful antitumor compound, 4e, affects the HOP-92 cell cycle’s growth and apoptosis.
Researcher : Dr.Mohamed Hawas email: mohhawwas80@gmail.com mob. 01151345909 Assay : Cell Cycle Analysis mohamedhassan.pharm.ast@azhr.edu.eg Samples : 02 samplescell line : ---Ref. : ---Date : 00-00-2022Reader : BD FACSCaliburKit used : ab139418_Propidium Iodide Flow Cytometry Kit/BDSolvent : DMSOAssay samples : Cell culture

[2] = system: HOP-92 cells; assay: Annexin V-FITC/PI apoptosis assay; assay type: cell-based, human
Protocol: Using the Annexin V-FITC/PI test, the tendency of compound 4e to cause apoptosis and its potential association with cytotoxic action were evaluated. The cells were labeled with annexin V-FITC/PI and cultured for 24 h to detect any signs of apoptosis. […] According to research on early and late apoptosis and DNA content (Figs. 9, 10), 4e with 3.4% necrosis is probably going to result in a large amount of apoptosis (Table 5 and Fig. 10).
Cell apoptosis were analyzed by the Annexin V-FITC Apoptosis Detection Kit (BioVision Research Products, USA). Thereafter, 1-5 x 10^5 cells was collected by centrifugation and resuspend in 500 μl of 1X Binding Buffer. Added 5 μl of Annexin V-FITC and 5 μl of propidium iodide (PI […], optional.). The cells incubated at room temperature for 5 min in the dark;Analyzed by Annexin V-FITC binding flow cytometric method (Ex = 488 nm; Em = 530 nm) usingFITC signal detector (usually FL1) and PI staining by the phycoerythrin emissionsignal detector (usually FL2).For adherent cells, we gently trypsinized and washed cells once with serum-containing mediabefore incubation with Annexin V-FITC (A.3-5).

[3] = system: normal cell line WI-38; conditions: human, 0.4 µM
[4] = in vitro; conditions: human, % viability

C/C(=N\Nc1ccc(S(N)(=O)=O)cc1)c1cnn(-c2cc(=O)[nH]c3ccc(Br)cc23)c1C [Compound 4e, (E)-4-(2-(1-(1-(6-bromo-2-oxo-1,2-dihydroquinolin-4-yl)-5-methyl-1H-pyrazol-4-yl)ethylidene)hydrazineyl)benzenesulfonamide]
DNA content Comment ([1]; HOP92 cells): cell growth arrest@ G1
DNA content %G2/M ([1]; HOP92 cells, control 16.08): 14.6%
DNA content %S ([1]; HOP92 cells, control 35.66): 31.29%
DNA content %G0-G1 ([1]; HOP92 cells, control 48.26): 54.11%
Comment (cell cycle arrest) ([1]; HOP-92, 24 h at IC50): cell growth is arrested at the G1 phase; also recorded: cell cycle arrest at the G0-1 phase; also recorded: Cell growth arrest at G1phase
DNA content % G0–G1 ([1]; HOP-92, 24 h at IC50): 54.11%
DNA content %G2/M ([1]; HOP-92, 24 h at IC50): 14.6%
DNA content %S ([1]; HOP-92, 24 h at IC50): 31.3%
Apoptosis Late ([2]; HOP92 cells, control 0.15): 11.28
Apoptosis Early ([2]; HOP92 cells, control 0.69): 22.91
Necrosis ([2]; HOP92 cells, control 1.3): 3.4
Apoptosis Total ([2]; HOP92 cells, control 2.14): 37.59
Apoptosis Early ([2]; HOP-92, 24 h at IC50): 22.91%
Apoptosis Late ([2]; HOP-92, 24 h at IC50): 11.28%
Apoptosis Total ([2]; HOP-92, 24 h at IC50): 37.59%
Necrosis ([2]; HOP-92, 24 h at IC50): 3.4%

CN[C@@H]1C[C@H]2O[C@@](C)([C@@H]1OC)n1c3ccccc3c3c4c(c5c6ccccc6n2c5c31)C(=O)NC4 [Staurosporine, reference compound]
% viability [3]: 84.55%
viability at 0.4 µM [4]: 84.6%
viability at 6.3 µM [4]: 56.2%
viability at 25 µM [4]: 46.8%
viability at 1.6 µM ([4]; WI38, 1.6uM (log conc. 0.19)): 68.1%
viability at 100 µM ([4]; WI38, 100uM (log conc. 2)): 37.4%

Source: article PMC12638379, “An innovative approach to development of new pyrazolylquinolin-2-one hybrids as dual EGFR and BRAF^V600E inhibitors” (Molecular Diversity, 2025)
